Measurements as given in patent publication US9683018B2, “Disulfide cyclic polypeptides for the treatment of heart failure” (priority 2013, dated 2017).
Bridge positions count the residues as written; N and C are the ends. Square brackets hold non-standard residues; d marks the D form. Peptide text beside a SMILES is read from it. * marks the point of attachment. pGlu = O=C1CC[C@@H](C(=O)O)N1; NHPhenethyl = c1ccc(CCN*)cc1; Nle = CCCC[C@H](N)C(=O)O; Aib = CC(C)(N)C(=O)O

Legend:
[1] = target: T1, hAPJ (Homo sapiens, UniProt P35414); experiment: hAPJ Calcium Flux Assay; type: cell-based; details: Chem-5 APJ stable cells, FLIPR calcium flux; read-out: hAPJ Ca2+ Flux EC50
T1 sequence (P35414 1-380): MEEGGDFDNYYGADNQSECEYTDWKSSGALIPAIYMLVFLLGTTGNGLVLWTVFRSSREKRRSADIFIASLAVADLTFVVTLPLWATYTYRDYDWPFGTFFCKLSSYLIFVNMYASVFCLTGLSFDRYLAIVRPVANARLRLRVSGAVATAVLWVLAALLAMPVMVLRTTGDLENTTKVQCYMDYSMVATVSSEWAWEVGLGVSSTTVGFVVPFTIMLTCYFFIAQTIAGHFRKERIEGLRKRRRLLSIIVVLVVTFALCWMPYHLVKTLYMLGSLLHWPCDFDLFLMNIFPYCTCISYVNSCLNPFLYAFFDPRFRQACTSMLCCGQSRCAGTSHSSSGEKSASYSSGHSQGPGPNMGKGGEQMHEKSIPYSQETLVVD
Description: Chem-5 APJ stable cells (Millipore # HTS068C) were plated in 384-well format with 10,000 cells/well in 25 ul growth media, then grown 24 hours in a 37° C. tissue culture incubator. One hour before the assay, 25 ul/well FLIPR Calcium 4 dye (Molecular Devices R8142) with 2.5 mM probenecid was added, and cells were incubated one hour in a 37° C. tissue culture incubator. Peptides were solubilized in HBSS, HEPES & 0.1% BSA buffer, and serially-diluted 10-fold, from 50 uM to 5 pM, in triplicate. FLIPR Tetra was used to add peptide to the cells with dye (1:5, for final peptide concentrations ranging from 10 uM to 1 pM). FLIPR dye inside the cells emitted fluorescence after binding to calcium, while fluorescence from outside the cells was masked. Fluorescence was measured using 470-495 excitation and 515-575 emission wavelengths on the FLIPR Tetra. Readings were done for 3 minutes total, beginning 10 seconds before the peptide addition. Maximum-minimum values were calculated and plotted for each peptide concentration, and GraphPad prism software was used to calculate EC50 values at the curve inflection points, for calcium flux stimulation by peptides.

[2] = Plasma stability assay (LC-MS); type: in vitro ADME; details: male, Sprague-Dawley, heparinized rat plasma, 37° C., Table 3, read-out: Plasma stability t½
Description: Working solution: 1 mg/mL test article is prepared in Milli-Q water
Extraction solution: Methanol:Acetonitrile:Water (1:1:1) with 0.1% Formic Acid and 400 ng/mL Glyburide.
Plasma: Male Sprague-Dawley rat plasma (with sodium heparin), purchased from Bioreclamation LLC (Liverpool, N.Y.).
Test article was prepared in one of the following biological matrices: heparinized rat plasma, heparinized rat whole blood or lung homogenate. The plasma and whole blood sample was prepared at 5000 ng/mL by adding 5 uL of 1 mg/mL Working solution to 995 uL of rat plasma or whole blood. Lung homogenate samples were prepared by diluting lung homogenate to 1 mg/ml protein concentration with phosphate buffered saline (PBS), followed by addition of 5 uL Working solution to 995 uL diluted lung homogenate. The samples were incubated at 37° C. with gentle shaking (65˜75 rpm) in a water bath incubator. At times 0 min, 5 min, 15 min, 30 min, 60 min, 120 and 240 min, 25 uL aliquots of incubation samples were transferred to 96-well plate and immediately protein precipitated using 150 uL of Extraction solution. After completion of incubation experiment, the sample plate was centrifuged at 4000 rpm at 4° C. for 10 minutes. Afterwards, a pipetting device (Tecan Temo) was used to transfer the supernatants to another plate and add 50 uL of water to all samples. The plate was vortexed prior to LC-MS analysis.
LC-MS Analysis of stability samples
HPLC: Agilent 1290 HPLC with autosampler
Column: MAC-MOD ACE C18, 3 μm, 30 mm×2.1 mm i.d.
Mobile phase A: 0.1% Formic acid in acetonitrile
Mobile phase B: 0.1% Formic acid in water

[3] = in vitro; details: rat, plasma
Description: The calcium flux protocol described above was followed, with the following changes. The peptides were also incubated with 5% rat plasma (Bioreclamation # [sequence]-M, Na Heparin-treated). Readings were taken at time points t0 and t24 hrs, after incubation in a 37° C. tissue culture incubator. Peptide plasma half-life in minutes was estimated by calculating the following:
2) Calculate slope of value above and

[4] = Surrogate Activity based Plasma stability t½
[5] = Surrogate activity-based Plasma stability t½

| Structure (SMILES) | EC50 [1] [nM] | half-life at 5000 ng/mL [2] [h] | half-life [3, 4] [h] | half-life [3, 5] [h] |
| --- | --- | --- | --- | --- |
| CCCC[C@@H]1NC(=O)[C@@H]2CCCN2C(=O)CNC(=O)[C@H](CCCCN)NC(=O)[C@H](Cc2c[nH]cn2)NC(=O)[C@H](CO)NC(=O)[C@@H](NC(=O)[C@H](CCCNC(=N)N)NC(=O)[C@@H]2CCCN2C(=O)[C@H](CCCNC(=N)N)NC(=O)[C@@H]2CCC(=O)N2)CSSC[C@@H](C(=O)N[C@@H](Cc2ccccc2)C(=O)O)NC1=O [Example 1, pE-R-P-R-C*-S-H-K-G-P-Nle-C*-F-OH] ([pGlu]RPRCSHKGP[Nle]CF-OH; disulfide 5-12) | 0.74 | 2.82 | 2.12 | 2.12 |
| CCCC[C@@H]1NC(=O)[C@@H]2CCCN2C(=O)CNC(=O)[C@H](CCCCN)NC(=O)[C@@H](NC(=O)[C@H](CO)NC(=O)[C@H](CC(C)C)NC(=O)[C@H](CCCNC(=N)N)NC(=O)[C@@H]2CCCN2C(=O)[C@H](CCCNC(=N)N)NC(=O)[C@@H]2CCC(=O)N2)CSSC[C@@H](C(=O)N[C@@H](Cc2ccccc2)C(=O)O)NC1=O [Example 3, pE-R-P-R-L-S-C*-K-G-P-Nle-C*-F-OH] ([pGlu]RPRLSCKGP[Nle]CF-OH; disulfide 7-12) | 128 | 1.35 | 0.433 | 0.433 |
| CCCC[C@@H]1NC(=O)[C@@H]2CCCN2C(=O)[C@@H](NC(=O)[C@H](CCCCN)NC(=O)[C@H](Cc2c[nH]cn2)NC(=O)[C@H](CO)NC(=O)[C@H](CC(C)C)NC(=O)[C@H](CCCNC(=N)N)NC(=O)[C@@H]2CCCN2C(=O)[C@H](CCCNC(=N)N)NC(=O)[C@@H]2CCC(=O)N2)CSSC[C@@H](C(=O)N[C@@H](Cc2ccccc2)C(=O)O)NC1=O [Example 14, pE-R-P-R-L-S-H-K-C*-P-Nle-C*-F-OH] ([pGlu]RPRLSHKCP[Nle]CF-OH; disulfide 9-12) | 0.81 | 1.08 | 0.483 | 0.483 |
| CCCC[C@@H]1NC(=O)[C@@H]2CCCN2C(=O)[C@@H](NC(=O)[C@H](CCCCN)NC(=O)C(C)(C)NC(=O)[C@H](CO)NC(=O)[C@H](CC(C)C)NC(=O)[C@H](CCCNC(=N)N)NC(=O)[C@@H]2CCCN2C(=O)[C@H](CCCNC(=N)N)NC(=O)[C@@H]2CCC(=O)N2)CSSC[C@@H](C(=O)NCCc2ccccc2)NC1=O [Example 15, pE-R-P-R-L-S-Aib-K-C*-P-Nle-C*-NH(Phenethyl)] ([pGlu]RPRLS[Aib]KCP[Nle]C-NHPhenethyl; disulfide 9-12) | 4 | 0.7 | 0.683 | 0.683 |
| CCCC[C@@H]1NC(=O)[C@@H]2CCCN2C(=O)[C@@H](NC(=O)[C@H](CCCCN)NC(=O)[C@H](Cc2c[nH]cn2)NC(=O)[C@@H](C)NC(=O)[C@H](CC(C)C)NC(=O)[C@H](CCCNC(=N)N)NC(=O)[C@@H]2CCCN2C(=O)[C@H](CCCNC(=N)N)NC(=O)[C@@H]2CCC(=O)N2)CSSC[C@@H](C(=O)N[C@H](Cc2ccccc2)C(=O)O)NC1=O [Example 17, pE-R-P-R-L-a-H-K-C*-P-Nle-C*-f-OH] ([pGlu]RPRL[dA]HKCP[Nle]C[dF]-OH; disulfide 9-12) | 1.9 | 8.42 | 15.1 | 15.1 |
| CCCC[C@@H]1NC(=O)[C@@H]2CCCN2C(=O)[C@@H](NC(=O)[C@H](CCCCN)NC(=O)[C@H](Cc2c[nH]cn2)NC(=O)[C@@H](CO)NC(=O)[C@H](CC(C)C)NC(=O)[C@H](CCCNC(=N)N)NC(=O)[C@@H]2CCCN2C(=O)[C@H](CCCNC(=N)N)NC(=O)[C@@H]2CCC(=O)N2)CSSC[C@@H](C(=O)N[C@H](Cc2ccccc2)C(=O)O)NC1=O [Example 21, pE-R-P-R-L-s-H-K-C*-P-Nle-C*-f-OH] ([pGlu]RPRL[dS]HKCP[Nle]C[dF]-OH; disulfide 9-12) | 9.7 |  |  | 8.88 |
